In patent publication US11524966B1 (Valo Early Discovery, Inc., priority 2017, dated 2022):

target: T1, USP25 (USP25-His6, Boston Biochem E-546) (Homo sapiens, UniProt Q9UHP3); experiment: Ubiquitin-Rhodamine 110 Assay for USP25 Activity, Example A-2; format: biochemical; settings: Ubiquitin-Rhodamine 110 assay, Example A-2; read-out: USP25 A-2 IC50 range
T1 construct: His6; purchased Boston Biochem E-546
T1 sequence (Q9UHP3 1-1055): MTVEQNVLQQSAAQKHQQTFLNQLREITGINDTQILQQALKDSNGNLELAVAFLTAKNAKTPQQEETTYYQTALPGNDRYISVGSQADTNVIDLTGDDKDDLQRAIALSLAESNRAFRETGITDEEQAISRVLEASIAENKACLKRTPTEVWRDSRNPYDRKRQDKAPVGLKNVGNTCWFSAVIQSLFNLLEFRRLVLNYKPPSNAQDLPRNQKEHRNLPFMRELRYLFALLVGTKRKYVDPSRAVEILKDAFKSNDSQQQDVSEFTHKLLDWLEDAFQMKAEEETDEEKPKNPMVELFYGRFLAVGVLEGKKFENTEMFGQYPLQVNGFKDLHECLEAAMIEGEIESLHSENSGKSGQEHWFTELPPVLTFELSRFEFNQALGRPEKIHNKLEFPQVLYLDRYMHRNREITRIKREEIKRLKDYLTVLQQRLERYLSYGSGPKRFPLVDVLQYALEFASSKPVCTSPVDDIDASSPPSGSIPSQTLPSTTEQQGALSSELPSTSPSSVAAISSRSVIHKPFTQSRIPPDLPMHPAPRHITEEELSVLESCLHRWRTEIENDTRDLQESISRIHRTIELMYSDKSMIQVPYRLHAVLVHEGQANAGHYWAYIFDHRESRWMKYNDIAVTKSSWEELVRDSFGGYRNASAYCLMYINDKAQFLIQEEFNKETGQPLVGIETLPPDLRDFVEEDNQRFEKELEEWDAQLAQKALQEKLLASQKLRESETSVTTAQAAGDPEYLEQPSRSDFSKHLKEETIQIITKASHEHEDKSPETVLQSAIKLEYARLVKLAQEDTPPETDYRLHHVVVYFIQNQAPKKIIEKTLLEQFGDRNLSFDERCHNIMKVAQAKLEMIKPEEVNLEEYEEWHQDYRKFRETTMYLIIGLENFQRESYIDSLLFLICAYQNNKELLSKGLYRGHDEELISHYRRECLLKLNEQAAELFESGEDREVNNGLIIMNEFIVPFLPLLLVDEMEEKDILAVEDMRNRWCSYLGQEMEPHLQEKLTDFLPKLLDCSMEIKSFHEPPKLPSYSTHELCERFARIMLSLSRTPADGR
How it was run: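 Steps: compound dilutions (top 25 μM, 3-fold, 10 points) were preincubated 30 min with 75 pM USP25-His6; 25 nM Ub-Rh110 substrate was added under initial-velocity conditions; after 45 min at room temperature, 10 mM citric acid stopped the reaction before fluorescence reading.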

Compared with `CO[C@H]1CN(c2cc3c(cc2C#N)C[C@@H](NC(=O)c2sc4nc(C)ccc4c2N)CC3)C[C@@H]1N` [Example 201, 3-amino-N-[(2S)-6-[(3S,4S)-3-amino-4-methoxypyrrolidin-1-yl]-7-cyano-1,2,3,4-tetrahydronaphthalen-2-yl]-6-methylthieno[2,3-b]pyridine-2-carboxamide], `CO[C@H]1CN(c2ccc3c(n2)CC[C@H](NC(=O)c2sc4nc(C)c(F)cc4c2N)C3)C[C@@H]1N` [Example 203, 3-amino-N-[(6S)-2-[(3S,4S)-3-amino-4-methoxypyrrolidin-1-yl]-5,6,7,8-tetrahydroquinolin-6-yl}-5-fluoro-6-methylthieno[2,3-b]pyridine-2-carboxamide] is higher in IC50: 200 to 2000 nM for the first, > 2000 nM for the second.

`Cc1ccc2c(N)c(C(=O)N[C@H]3COc4cc(N5C[C@H](OC(C)C)[C@@H](N)C5)ccc4C3)sc2n1` [Example 202, 3-amino-N-[(3R)-7-[(3S,4S)-3-amino-4-(propan-2-yloxy)pyrrolidin-1-yl]-3,4-dihydro-2H-1-benzopyran-3-yl]6-methylthieno[2,3-b]pyridine-2-carboxamide] and `CN[C@H]1CN(c2ccc3c(c2)OC[C@H](NC(=O)c2sc4nc(C)ccc4c2N)C3)C[C@@H]1OC` [Example 212, 3-amino-N-[(3R)-7-[(3S,4S)-3-methoxy-4-(methylamino)pyrrolidin-1-yl]-3,4-dihydro-2H-1-benzopyran-3-yl]-6-methylthieno[2,3-b]pyridine-2-carboxamide] fall in the same range of IC50: 200 to 2000 nM for the first, 200 to 2000 nM for the second.

First: Cc1nc2sc(C(=O)N[C@H]3CCc4nc(N5CCNCC5)ccc4C3)c(N)c2cc1F [Example 204, 3-amino-5-fluoro-6-methyl-N-[(6S)-2-(piperazin-1-yl)-5,6,7,8-tetrahydroquinolin-6-yl]thieno[2,3-b]pyridine-2-carboxamide]
Second: Cc1ccc2c(N)c(C(=O)N[C@H]3Cc4ccc(N5CCNCC5)nc4[C@@H](C)C3)sc2n1 [Example 206, 3-amino-6-methyl-N-[(6R,8S)-8-methyl-2-(piperazin-1-yl)-5,6,7,8-tetrahydroquinolin-6-yl]thieno[2,3-b]pyridine-2-carboxamide]
The IC50 of the first is lower: 200 to 2000 nM for the first, > 2000 nM for the second.

First: Cc1ccc2c(N)c(C(=O)N[C@@H]3Cc4ccc(N5CCNCC5)nc4[C@H](C)C3)sc2n1 [Example 207, 3-amino-6-methyl-N-[(6S,8R)-8-methyl-2-(piperazin-1-yl)-5,6,7,8-tetrahydroquinolin-6-yl]thieno[2,3-b]pyridine-2-carboxamide]
Second: Cc1ccc2c(N)c(C(=O)N[C@H]3Cc4ccc(N5CCNCC5)nc4[C@H](C)C3)sc2n1 [Example 208, 3-amino-6-methyl-N-[(6R,8R)-8-methyl-2-(piperazin-1-yl)-5,6,7,8-tetrahydroquinolin-6-yl]thieno[2,3-b]pyridine-2-carboxamide]
The IC50 of the first is higher: > 2000 nM for the first, 200 to 2000 nM for the second.

Compared with `Cc1ccc2c(N)c(C(=O)N[C@H]3COc4cc(N5C6CNCC5COC6)ccc4C3)sc2n1` [Example 209, 3-amino-6-methyl-N-[(3R)-7-{3-oxa-7,9-diazabicyclo[3.3.1]nonan-9-yl}-3,4-dihydro-2H-1-benzopyran-3-yl]thieno[2,3-b]pyridine-2-carboxamide], `Cc1ccc2c(N)c(C(=O)N[C@H]3COc4cc(N5C[C@H](N)C(C)(C)C5)ccc4C3)sc2n1` [Example 214, 3-amino-N-[(3R)-7-[(4R)-4-amino-3,3-dimethylpyrrolidin-1-yl]-3,4-dihydro-2H-1-benzopyran-3-yl]-6-methylthieno[2,3-b]pyridine-2-carboxamide] is higher in IC50: 1 to 50 nM for the first, 50 to 200 nM for the second.

`CO[C@@]1(C)CN(c2ccc3c(n2)CC[C@H](NC(=O)c2sc4nc(C)ccc4c2N)C3)C[C@@H]1N` [Example 210, 3-amino-N-[(6S)-2-[(3S,4S)-4-amino-3-methoxy-3-methylpyrrolidin-1-yl]-5,6,7,8-tetrahydroquinolin-6-yl]-6-methylthieno[2,3-b]pyridine-2-carboxamide] and `CO[C@]1(C)CN(c2ccc3c(n2)CC[C@H](NC(=O)c2sc4nc(C)ccc4c2N)C3)C[C@H]1N` [Example 211, 3-amino-N-[(6S)-2-[(3R,4R)-4-amino-3-methoxy-3-methylpyrrolidin-1-yl]-5,6,7,8-tetrahydroquinolin-6-yl]-6-methylthieno[2,3-b]pyridine-2-carboxamide] cannot be ordered by IC50: > 2000 nM for the first, > 2000 nM for the second.

First: CO[C@H]1CN(c2ccc3c(c2)OC[C@H](NC(=O)c2sc4nc(C)ccc4c2N)C3)C[C@@H]1NC(C)=O [Example 213, 3-amino-N-[(3R)-7-[(3S,4S)-3-acetamido-4-methoxypyrrolidin-1-yl]-3,4-dihydro-2H-1-benzopyran-3-yl]-6-methylthieno[2,3-b]pyridine-2-carboxamide]
Second: Cc1ccc2c(N)c(C(=O)N[C@H]3COc4cc(N5C[C@@H](N)C(C)(C)C5)ccc4C3)sc2n1 [Example 215, 3-amino-N-[(3R)-7-[(4S)-4-amino-3,3-dimethylpyrrolidin-1-yl]-3,4-dihydro-2H-1-benzopyran-3-yl]-6-methylthieno[2,3-b]pyridine-2-carboxamide]
The IC50 of the first is higher: 200 to 2000 nM for the first, 50 to 200 nM for the second.

First: Cc1ccc2c(N)c(C(=O)N[C@H]3CCc4nc(N5CC[C@H]6CNC[C@H]65)ccc4C3)sc2n1 [Example 216, N-[(6S)-2-[(3aS,6aS)-octahydropyrrolo[2,3-c]pyrrol-1-yl}-5,6,7,8-tetrahydroquinolin-6-yl]-3-amino-6-methylthieno[2,3-b]pyridine-2-carboxamide]
Second: Cc1ccc2c(N)c(C(=O)N[C@H]3CCc4nc(N5CC[C@@H]6CNC[C@@H]65)ccc4C3)sc2n1 [Example 217, N-[(6S)-2-[(3aR,6aR)-octahydropyrrolo[2,3-c]pyrrol-1-yl]-5,6,7,8-tetrahydroquinolin-6-yl]-3-amino-6-methylthieno[2,3-b]pyridine-2-carboxamide]
The IC50 of the first is higher: 200 to 2000 nM for the first, 50 to 200 nM for the second.

First: Cc1cc(C)c2c(N)c(C(=O)N[C@H]3CCc4nc(N5CC[C@H]6CNC[C@H]65)ccc4C3)sc2n1 [Example 218, N-[(6S)-2-[(3aS 6aS)-octahydropyrrolo[2,3-c]pyrrol-1-yl]-5,6,7,8-tetrahydroquinolin-6-yl]-3-amino-4,6-dimethylthieno[2,3-b]pyridine-2-carboxamide]
Second: Cc1cc(C)c2c(N)c(C(=O)N[C@H]3CCc4nc(N5CC[C@@H]6CNC[C@@H]65)ccc4C3)sc2n1 [Example 219, N-[(6S)-2-[(3aR,6aR)-octahydropyrrolo[2,3-c]pyrrol-1-yl]-5,6,7,8-tetrahydroquinolin-6-yl]-3-amino-4,6-dimethylthieno[2,3-b]pyridine-2-carboxamide]
The IC50 of the first is higher: 200 to 2000 nM for the first, 50 to 200 nM for the second.

First: Cc1ccc2c(N)c(C(=O)N[C@H]3COc4cc(N5CC[C@H]6CNC[C@H]65)cc(F)c4C3)sc2n1 [Example 220, N-[(3R)-7-[(3aS,6aS)-octahydropyrrolo[2,3-c]pyrrol-1-yl]-5-fluoro-3,4-dihydro-2H-1-benzopyran-3-yl]-3-amino-6-methylthieno[2,3-b]pyridine-2-carboxamide]
Second: Cc1ccc2c(N)c(C(=O)N[C@H]3COc4cc(N5CC[C@@H]6CNC[C@@H]65)cc(F)c4C3)sc2n1 [Example 221, N-[(3R)-7-[(3aR,6aR)-octahydropyrrolo[2,3-c]pyrrol-1-yl]-5-fluoro-3,4-dihydro-2H-1-benzopyran-3-yl]-3-amino-6-methylthieno[2,3-b]pyridine-2-carboxamide]
The IC50 of the first is lower: 50 to 200 nM for the first, 200 to 2000 nM for the second. The first is the more potent here.
